In the supplement of paper PMC10307832:

Columns and labels:
Experiment in all cases: relative viability (nuclei count vs DMSO), 5 days (fraction); higher = more cells survive
[1] = tested on: ChaGo-K-1
Outline: (§1)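 Lung cancer cell lines were pin-tool dosed in 1536-well plates on the day after seeding, with either a lone drug or a fixed anchor-drug dose plus five library-drug doses (not always all listed) in √10 steps. Nuclei were counted on 4× images after 5 days. Relative viability is the ratio of treated-well to vehicle-well nuclei counts, with each value a median of duplicate plates.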

[2] = tested on: EKVX
Outline: as §1

[3] = tested on: EMC-BAC-2
Outline: as §1

[4] = tested on: EPLC-272H
Outline: as §1

[5] = tested on: H3255
Outline: as §1

[6] = tested on: HARA
Outline: as §1

[7] = tested on: HCC-15
Outline: as §1

[8] = tested on: HCC-827
Outline: as §1

[9] = tested on: LC-2-ad
Outline: as §1

[10] = tested on: LCLC-103H
Outline: as §1

[11] = tested on: LK-2
Outline: as §1

[12] = tested on: NCI-H1648
Outline: as §1

[13] = tested on: NCI-H1792
Outline: as §1

[14] = tested on: NCI-H1793
Outline: as §1

[15] = tested on: NCI-H1944
Outline: as §1

[16] = tested on: NCI-H2170
Outline: as §1

[17] = tested on: NCI-H23
Outline: as §1

[18] = tested on: NCI-H2405
Outline: as §1

[19] = tested on: NCI-H3122
Outline: as §1

[20] = tested on: NCI-H596
Outline: as §1

[21] = tested on: RERF-LC-KJ
Outline: as §1

[22] = tested on: SW 1573
Outline: as §1

[23] = tested on: SW 900
Outline: as §1

In the case of `C=C1C(=O)O[C@@H](CCCCCCCC)[C@@H]1C(=O)O` [C-75] + Nc1ncn([C@H]2C[C@H](O)[C@@H](CO)O2)c(=O)n1 [Decitabine] (partner 2 µM), the relative viability ([1]; first compound 0.08 µM) is reported as 0.505, the relative viability ([1]; first compound 0.253 µM) is reported as 0.504 and the relative viability ([1]; first compound 0.8 µM) is reported as 0.503. It also gave a relative viability ([1]; first compound 2.53 µM) of 0.423, a relative viability ([1]; first compound 8 µM) of 0.552 and a relative viability ([2]; first compound 0.08 µM) of 0.399. It also gave a relative viability ([2]; first compound 0.253 µM) of 0.397, a relative viability ([2]; first compound 0.8 µM) of 0.336 and a relative viability ([2]; first compound 8 µM) of 0.325. It also gave a relative viability ([3]; first compound 0.08 µM) of 1.02, a relative viability ([3]; first compound 0.253 µM) of 0.984 and a relative viability ([3]; first compound 0.8 µM) of 0.983. The relative viability ([3]; first compound 2.53 µM) was 0.834, the relative viability ([3]; first compound 8 µM) was 0.947 and the relative viability ([4]; first compound 0.08 µM) was 0.338. It also gave a relative viability ([4]; first compound 0.253 µM) of 0.436, a relative viability ([4]; first compound 0.8 µM) of 0.334 and a relative viability ([4]; first compound 2.53 µM) of 0.33. For the same compound, the relative viability ([4]; first compound 8 µM) was 0.349, the relative viability ([5]; first compound 0.08 µM) was 0.535 and the relative viability ([5]; first compound 0.253 µM) was 0.599. The relative viability ([5]; first compound 0.8 µM) was 0.74, the relative viability ([5]; first compound 2.53 µM) was 0.585 and the relative viability ([5]; first compound 8 µM) was 0.652. It also gave a relative viability ([6]; first compound 0.08 µM) of 0.538, a relative viability ([6]; first compound 0.253 µM) of 0.444 and a relative viability ([6]; first compound 0.8 µM) of 0.565. It also gave a relative viability ([6]; first compound 2.53 µM) of 0.535, a relative viability ([6]; first compound 8 µM) of 0.756 and a relative viability ([7]; first compound 0.08 µM) of 0.691. It also gave a relative viability ([7]; first compound 0.253 µM) of 0.636, a relative viability ([7]; first compound 0.8 µM) of 0.551 and a relative viability ([7]; first compound 2.53 µM) of 0.543. It also gave a relative viability ([7]; first compound 8 µM) of 0.626, a relative viability ([8]; first compound 0.253 µM) of 0.333 and a relative viability ([8]; first compound 0.8 µM) of 0.277. The relative viability ([8]; first compound 8 µM) was 0.262, the relative viability ([9]; first compound 0.08 µM) was 0.785 and the relative viability ([9]; first compound 0.253 µM) was 0.809. For the same compound, the relative viability ([9]; first compound 0.8 µM) was 0.755, the relative viability ([9]; first compound 2.53 µM) was 0.771 and the relative viability ([9]; first compound 8 µM) was 0.837. It also gave a relative viability ([10]; first compound 0.08 µM) of 0.697, a relative viability ([10]; first compound 0.253 µM) of 0.716 and a relative viability ([10]; first compound 0.8 µM) of 0.674. For the same compound, the relative viability ([10]; first compound 2.53 µM) was 0.623, the relative viability ([10]; first compound 8 µM) was 0.725 and the relative viability ([11]; first compound 0.08 µM) was 0.309. It also gave a relative viability ([11]; first compound 0.253 µM) of 0.374, a relative viability ([11]; first compound 0.8 µM) of 0.306 and a relative viability ([11]; first compound 2.53 µM) of 0.232. It also gave a relative viability ([11]; first compound 8 µM) of 0.271, a relative viability ([12]; first compound 0.08 µM) of 0.487 and a relative viability ([12]; first compound 0.253 µM) of 0.671. For the same compound, the relative viability ([12]; first compound 0.8 µM) was 0.473, the relative viability ([12]; first compound 8 µM) was 0.492 and the relative viability ([13]; first compound 0.08 µM) was 0.516. For the same compound, the relative viability ([13]; first compound 0.253 µM) was 0.554, the relative viability ([13]; first compound 0.8 µM) was 0.509 and the relative viability ([13]; first compound 2.53 µM) was 0.494. It also gave a relative viability ([13]; first compound 8 µM) of 0.475, a relative viability ([14]; first compound 0.08 µM) of 0.485 and a relative viability ([14]; first compound 0.253 µM) of 0.571. The relative viability ([14]; first compound 2.53 µM) was 0.275, the relative viability ([14]; first compound 8 µM) was 0.449 and the relative viability ([15]; first compound 0.08 µM) was 0.423. It also gave a relative viability ([15]; first compound 0.253 µM) of 0.471, a relative viability ([15]; first compound 0.8 µM) of 0.35 and a relative viability ([15]; first compound 2.53 µM) of 0.368. For the same compound, the relative viability ([15]; first compound 8 µM) was 0.461, the relative viability ([16]; first compound 0.08 µM) was 0.479 and the relative viability ([16]; first compound 0.253 µM) was 0.505. It also gave a relative viability ([16]; first compound 0.8 µM) of 0.449, a relative viability ([16]; first compound 2.53 µM) of 0.422 and a relative viability ([16]; first compound 8 µM) of 0.401. For the same compound, the relative viability ([17]; first compound 0.08 µM) was 0.307, the relative viability ([17]; first compound 0.253 µM) was 0.334 and the relative viability ([17]; first compound 0.8 µM) was 0.308. For the same compound, the relative viability ([17]; first compound 2.53 µM) was 0.249, the relative viability ([17]; first compound 8 µM) was 0.247 and the relative viability ([18]; first compound 0.08 µM) was 0.807. It also gave a relative viability ([18]; first compound 0.253 µM) of 0.423, a relative viability ([18]; first compound 0.8 µM) of 0.714 and a relative viability ([18]; first compound 2.53 µM) of 0.681. It also gave a relative viability ([18]; first compound 8 µM) of 0.789, a relative viability ([19]; first compound 0.08 µM) of 0.423 and a relative viability ([19]; first compound 0.253 µM) of 0.486. The relative viability ([19]; first compound 0.8 µM) was 0.355, the relative viability ([19]; first compound 2.53 µM) was 0.346 and the relative viability ([19]; first compound 8 µM) was 0.455. The relative viability ([20]; first compound 0.08 µM) was 0.943, the relative viability ([20]; first compound 0.253 µM) was 1.16 and the relative viability ([20]; first compound 0.8 µM) was 0.953. For the same compound, the relative viability ([20]; first compound 2.53 µM) was 1.07, the relative viability ([20]; first compound 8 µM) was 0.96 and the relative viability ([21]; first compound 0.08 µM) was 0.682. For the same compound, the relative viability ([21]; first compound 0.253 µM) was 0.848, the relative viability ([21]; first compound 0.8 µM) was 0.613 and the relative viability ([21]; first compound 2.53 µM) was 0.568. The relative viability ([21]; first compound 8 µM) was 0.605, the relative viability ([22]; first compound 0.08 µM) was 0.464 and the relative viability ([22]; first compound 0.253 µM) was 0.51. It also gave a relative viability ([22]; first compound 0.8 µM) of 0.434, a relative viability ([22]; first compound 2.53 µM) of 0.385 and a relative viability ([22]; first compound 8 µM) of 0.351. For the same compound, the relative viability ([23]; first compound 0.08 µM) was 0.413, the relative viability ([23]; first compound 0.253 µM) was 0.489 and the relative viability ([23]; first compound 0.8 µM) was 0.46. The relative viability ([23]; first compound 2.53 µM) was 0.401 and the relative viability ([23]; first compound 8 µM) was 0.403.
